Earlier results, collected in patent US12655168B2, “Isolation of steviol glycosides” (DSM IP ASSETS B.V., priority 2019, dated 2026).
Blank lines part the entries; values can stand above or below the molecule they belong to.

Tests used:
[1] = mildly hypertensive patients
[2] = Type II diabetics
[3] = relative to sucrose
[4] = new hemihydrate crystal form; obtained after heating and cooling a 0.06% reb B solution to room temperature

Molecule: C=C1C[C@@]23CC[C@H]4[C@@](C)(CCC[C@@]4(C)C(=O)O[C@@H]4O[C@H](CO)[C@@H](O)[C@H](O)[C@H]4O)[C@@H]2CC[C@]1(O[C@@H]1O[C@H](CO)[C@@H](O)[C@H](O)[C@H]1O[C@@H]1O[C@H](CO)[C@@H](O)[C@H](O)[C@H]1O)C3 [Stevioside]
effect on blood pressure [1]: reduce blood pressure
effect on blood glucose levels [2]: reduce blood glucose levels

Molecule: C=C1C[C@@]23CC[C@H]4[C@@](C)(CCC[C@@]4(C)C(=O)O[C@@H]4O[C@H](CO)[C@@H](O)[C@H](O)[C@H]4O[C@@H]4O[C@H](CO)[C@@H](O)[C@H](O)[C@H]4O)[C@@H]2CC[C@]1(O[C@@H]1O[C@H](CO)[C@@H](O)[C@H](O[C@@H]2O[C@H](CO)[C@@H](O)[C@H](O)[C@H]2O)[C@H]1O[C@@H]1O[C@H](CO)[C@@H](O)[C@H](O)[C@H]1O)C3 [rebaudioside D]
times sweeter than sucrose [3]: about 200 times

solubility in water [4]: 50 ppm
Molecule: rebaudioside B
